Laboratory results from patent publication US20250122221A1 (NANJING ZAIMING PHARMACEUTICAL CO., LTD., priority 2022, published 2025).

target: N-terminal active peptide segment (MI-N899) of POLQ with ATPase activity (Homo sapiens (Human), UniProt O75417); assay: POLQ enzyme activity inhibition experiment (ATPase, NADH-coupled, OD 340 nm); format: biochemical; conditions: 100 nM POLQ (N), 100 μM ATP, 300 nM dT50
Protocol: The Envision microplate reader from Perkin Elmer Inc was used to measure the reduction of OD value of NADH at 340 nm, thus reflecting the enzyme activity. Experimental method: The POLQ enzyme was diluted to 100 nM with a reaction buffer (20 mM Tris HCl (pH 7.80), 80 mM KCl, 10 mM MgCl2, 1 mM DTT, 0.01% w/v bovine serum albumin, 0.01% v/v Tween-20, and 5% v/v glycerol). The compounds to be tested were diluted to different concentrations in dimethyl sulfoxide (DMSO) using the Echo 650 pipetting system, and transferred to a 384-well plate, 20 μL/well of 100 nM POLQ was added, and the mixture was incubated at room temperature for 15 minutes. A reaction mixture solution was formulated, and the concentration of each component in the reaction mixture solution was: 100 μM ATP, 300 nM […], 300 μM NADH, 6 mM PEP, 10 U/mL lactate dehydrogenase and 20 U/mL pyruvate kinase. 20 μL/well of reaction mixture solution was added to start the enzyme reaction. […] The concentration range was from 10 μM to 0.0005 μM, and the final concentration of DMSO in the system was 0.2% v/v. The 384-well plate was reacted at room temperature for 20 minutes, and then the OD value at 340 nm was read with an Envision microplate reader. The inhibition rate was calculated, and XLfit software was used to perform fitting to obtain IC50 of the compounds. In the experiment, a blank group and a DMSO group were set up, respectively.

Chain of N-terminal active peptide segment (MI-N899) of POLQ with ATPase activity (O75417 1-899 limits assumed): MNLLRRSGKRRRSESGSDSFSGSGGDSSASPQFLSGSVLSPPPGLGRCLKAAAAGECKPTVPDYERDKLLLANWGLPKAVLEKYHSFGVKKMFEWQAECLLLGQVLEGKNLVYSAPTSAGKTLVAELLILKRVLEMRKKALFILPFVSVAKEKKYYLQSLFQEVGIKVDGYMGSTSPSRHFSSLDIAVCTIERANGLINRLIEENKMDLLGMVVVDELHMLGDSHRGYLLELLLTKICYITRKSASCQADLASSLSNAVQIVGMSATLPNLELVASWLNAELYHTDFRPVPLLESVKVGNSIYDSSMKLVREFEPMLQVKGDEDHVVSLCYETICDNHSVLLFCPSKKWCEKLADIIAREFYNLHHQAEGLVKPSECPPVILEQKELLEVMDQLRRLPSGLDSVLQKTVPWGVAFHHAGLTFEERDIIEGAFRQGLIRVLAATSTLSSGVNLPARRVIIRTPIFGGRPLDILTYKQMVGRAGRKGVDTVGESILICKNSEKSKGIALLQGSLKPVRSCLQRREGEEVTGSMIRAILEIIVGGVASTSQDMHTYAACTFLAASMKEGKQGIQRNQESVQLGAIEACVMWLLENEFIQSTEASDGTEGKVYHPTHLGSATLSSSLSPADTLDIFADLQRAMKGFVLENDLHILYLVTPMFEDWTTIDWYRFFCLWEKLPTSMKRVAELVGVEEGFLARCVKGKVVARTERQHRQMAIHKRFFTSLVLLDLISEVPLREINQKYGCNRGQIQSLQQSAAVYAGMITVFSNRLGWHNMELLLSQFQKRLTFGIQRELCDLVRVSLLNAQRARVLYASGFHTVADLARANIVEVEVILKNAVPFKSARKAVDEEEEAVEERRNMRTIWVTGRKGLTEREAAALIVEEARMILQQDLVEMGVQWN

Row | IC50 | Structure (SMILES)
1 | 100 to 500 nM | COc1ccccc1-c1cnccc1C(=O)Nc1nc2ccc(-c3ccc(Cl)cc3)nc2s1 [Compound 1, N-(5-(4-chlorophenyl)thiazolo[5,4-b]pyridin-2-yl)-3-(2-methoxyphenyl)pyridine-4-carboxamide]
2 | < 100 nM | COc1ccccc1-c1cnccc1C(=O)Nc1nc2ncc(-c3cccc(Cl)c3)nc2s1 [Compound 5, N-(6-(3-chlorophenyl)thiazolo[4,5-b]pyrazin-2-yl)-3-(2-methoxyphenyl)pyridine-4-carboxamide]
3 | < 100 nM | COc1ccccc1-c1cnccc1C(=O)Nc1nc2ncc(-c3ccc(C)cc3)nc2s1 [Compound 6, 3-(2-methoxyphenyl)-N-(6-(4-methylphenyl)thiazolo[4,5-b]pyrazin-2-yl)pyridine-4-carboxamide]
4 | < 100 nM | COc1ccccc1-c1cnccc1C(=O)Nc1nc2ncc(-c3ccc(C#N)nc3)nc2s1 [Compound 11, N-(6-(6-cyanopyridin-3-yl)thiazolo[4,5-b]pyrazin-2-yl)-3-(2-methoxyphenyl)isonicotinamide]
5 | < 100 nM | COc1ccccc1-c1cnccc1C(=O)Nc1nc2ncc(-c3ccc(C#N)c(F)c3)nc2s1 [Compound 12, N-(6-(4-cyano-3-fluorophenyl)thiazolo[4,5-b]pyrazin-2-yl)-3-(2-methoxyphenyl)isonicotinamide]
6 | < 100 nM | COc1ccccc1-c1cnccc1C(=O)Nc1nc2ncc(-c3ccc(C#N)cc3F)nc2s1 [Compound 13, N-(6-(4-cyano-2-fluorophenyl)thiazolo[4,5-b]pyrazin-2-yl)-3-(2-methoxyphenyl)isonicotinamide]
7 | < 100 nM | COc1cc(-c2cnc3nc(NC(=O)c4ccncc4-c4ccccc4OC)sc3n2)ccc1C#N [Compound 14, N-(6-(4-cyano-3-methoxyphenyl)thiazolo[4,5-b]pyrazin-2-yl)-3-(2-methoxyphenyl)isonicotinamide]
8 | < 100 nM | COc1cc(C#N)ccc1-c1cnc2nc(NC(=O)c3ccncc3-c3ccccc3OC)sc2n1 [Compound 15, N-(6-(4-cyano-2-methoxyphenyl)thiazolo[4,5-b]pyrazin-2-yl)-3-(2-methoxyphenyl)isonicotinamide]
9 | < 100 nM | COc1cccc(F)c1-c1cc(C#N)ncc1C(=O)Nc1nc2ncc(-c3ccc(Cl)cc3)nc2s1 [Compound 17, N-(6-(4-chlorophenyl)thiazolo[4,5-b]pyrazin-2-yl)-6-cyano-4-(2-fluoro-6-methoxyphenyl)nicotinamide]
10 | < 100 nM | N#Cc1cc(-c2ccccc2OC(F)F)c(C(=O)Nc2nc3ncc(-c4ccc(Cl)cc4)nc3s2)cn1 [Compound 18, N-(6-(4-chlorophenyl)thiazolo[4,5-b]pyrazin-2-yl)-6-cyano-4-(2-(difluoromethoxy)phenyl)nicotinamide]
11 | < 100 nM | COc1ccccc1-c1cc(C#N)ncc1C(=O)Nc1nc2ncc(-c3ccc(=O)n(C)c3)nc2s1 [Compound 19, 6-cyano-4-(2-methoxyphenyl)-N-(6-(1-methyl-6-oxo-1,6-dihydropyridin-3-yl)thiazolo[4,5-b]pyrazin-2-yl)nicotinamide]
12 | < 100 nM | COc1ccc(C#N)cc1-c1cc(C)ncc1C(=O)Nc1nc2ncc(-c3ccc(C4CC4)cn3)nc2s1 [Compound 22, 4-(5-cyano-2-methoxyphenyl)-N-(6-(5-cyclopropylpyridin-2-yl)thiazolo[4,5-b]pyrazin-2-yl)-6-methylnicotinamide]
13 | < 100 nM | COc1ccccc1-c1cc(C)ncc1C(=O)Nc1nc2ncc(-c3ccc(C#N)cc3)nc2s1 [Compound 31, N-(6-(4-cyanophenyl)thiazolo[4,5-b]pyrazin-2-yl)-4-(2-methoxyphenyl)-6-methylpyridine-3-carboxamide]
14 | < 100 nM | COc1ccccc1-c1cc(C#N)ncc1C(=O)Nc1nc2ncc(-c3ccc(C#N)cc3)nc2s1 [Compound 35, 6-cyano-N-(6-(4-cyanophenyl)thiazolo[4,5-b]pyrazin-2-yl)-4-(2-methoxyphenyl)pyridine-3-carboxamide]
15 | < 100 nM | COc1ccccc1-c1cc(C(F)(F)F)ncc1C(=O)Nc1nc2ncc(-c3ccc(C#N)cc3)nc2s1 [Compound 36, N-(6-(4-cyanophenyl)thiazolo[4,5-b]pyrazin-2-yl)-4-(2-methoxyphenyl)-6-(trifluoromethyl)pyridine-3-carboxamide]
16 | < 100 nM | N#Cc1ccc(-c2cnc3nc(NC(=O)c4cnc(C#N)cc4N4CCOCC4)sc3n2)cc1 [Compound 39, 6-cyano-N-(6-(4-cyanophenyl)thiazolo[4,5-b]pyrazin-2-yl)-4-morpholinopyridine-3-carboxamide]
17 | < 100 nM | COc1cc(C#N)ccc1-c1cnccc1C(=O)Nc1nc2ncc(-c3ccc(C#N)cc3)nc2s1 [Compound 40, 3-(4-cyano-2-methoxyphenyl)-N-(6-(4-cyanophenyl)thiazolo[4,5-b]pyrazin-2-yl)pyridine-4-carboxamide]

Row | Structure (SMILES) | IC50
18 | COc1ccccc1-c1cnccc1C(=O)Nc1nc2ncc(-c3ccc(Cl)cc3)nc2s1 [Compound 2, N-(6-(4-chlorophenyl)thiazolo[4,5-b]pyrazin-2-yl)-3-(2-methoxyphenyl)pyridine-4-carboxamide] | < 100 nM
19 | COc1cccc(F)c1-c1cnccc1C(=O)Nc1nc2ncc(-c3ccc(Cl)cc3)nc2s1 [Compound 3, N-(6-(4-chlorophenyl)thiazolo[4,5-b]pyrazin-2-yl)-3-(2-fluoro-6-methoxyphenyl)pyridine-4-carboxamide] | < 100 nM
20 | COc1ccccc1-c1cc(C)ncc1C(=O)Nc1nc2ncc(-c3ccc(Cl)cc3)nc2s1 [Compound 4] | < 100 nM
21 | COc1ccc(-c2cnc3nc(NC(=O)c4ccncc4-c4ccccc4OC)sc3n2)cc1 [Compound 7, 3-(2-methoxyphenyl)-N-(6-(4-methoxyphenyl)thiazolo[4,5-b]pyrazin-2-yl)pyridine-4-carboxamide] | < 100 nM
22 | COc1ccccc1-c1cnccc1C(=O)Nc1nc2cnc(-c3ccc(Cl)cc3)nc2s1 [Compound 8, N-(5-(4-chlorophenyl)thiazolo[5,4-d]pyrimidin-2-yl)-3-(2-methoxyphenyl)pyridine-4-carboxamide] | < 100 nM
23 | COc1ccccc1-c1cnccc1C(=O)Nc1nc2ncc(-c3ccc(Cl)cc3)cc2s1 [Compound 10, N-(6-(4-chlorophenyl)thiazolo[4,5-b]pyridin-2-yl)-3-(2-methoxyphenyl)isonicotinamide] | < 100 nM
24 | COc1ccccc1-c1cc(C#N)ncc1C(=O)Nc1nc2ncc(-c3ccc(Cl)cc3)nc2s1 [Compound 28, N-(6-(4-chlorophenyl)thiazolo[4,5-b]pyrazin-2-yl)-6-cyano-4-(2-methoxyphenyl)pyridine-3-carboxamide] | < 100 nM
25 | C#Cc1ccccc1-c1cnccc1C(=O)Nc1nc2ncc(-c3ccc(Cl)cc3)nc2s1 [Compound 29, N-(6-(4-chlorophenyl)thiazolo[4,5-b]pyrazin-2-yl)-3-(2-ethynylphenyl)pyridine-4-carboxamide] | < 100 nM
26 | N#Cc1ccc(C(=O)Nc2nc3ncc(-c4ccc(Cl)cc4)nc3s2)c(-c2ccccc2C#N)c1 [Compound 37, N-(6-(4-chlorophenyl)thiazolo[4,5-b]pyrazin-2-yl)-2′,5-dicyano-[1,1′-biphenyl]-2-carboxamide] | < 100 nM
27 | C#Cc1ccccc1-c1cc(C#N)ncc1C(=O)Nc1nc2ncc(-c3ccc(Cl)cc3)nc2s1 [Compound 38, N-(6-(4-chlorophenyl)thiazolo[4,5-b]pyrazin-2-yl)-6-cyano-4-(2-ethynylphenyl)pyridine-3-carboxamide] | < 100 nM
